Measurements taken from patent publication US9481648B2, “Kinase inhibitors” (Respivert Limited, priority 2013, dated 2016).
Where two headings read alike, the source gives them in different places.

Experiments:
non-mutant kinases = type: binding; details: for KinomeScan Selectivity Score S(10): (number of non-mutant kinases with % Ctrl <10)/(number of non-mutant kinases tested); for KinomeScan Selectivity Score S(35): (number of non-mutant kinases with % Ctrl <35)/(number of non-mutant kinases tested); for number of individual kinase hits, S(1): non-mutant kinases with % Ctrl <1; for number of individual kinase hits, S(10): non-mutant kinases with % Ctrl <10; for number of individual kinase hits, S(35): non-mutant kinases with % Ctrl <35; for KinomeScan Selectivity Score S(1): (number of non-mutant kinases with % Ctrl <1)/(number of non-mutant kinases tested); for selectivity compared to the Reference Compound: as evidenced by lower selectivity scores
Experimental: These assays may be conducted by DiscoverX (formerly Ambit; San Diego, Calif.). The percentage inhibition produced by incubation with a test compound may be calculated relative to the non-inhibited control.

p38 MAPKα (MAPK14) = p38 MAPKα (MAPK14) (Homo sapiens (Human), UniProt Q16539); assay: p38 MAPKα enzyme inhibition (FRET, Z-LYTE; Method 2); type: biochemical
Sequence of p38 MAPKα (MAPK14) (Q16539 whole entry): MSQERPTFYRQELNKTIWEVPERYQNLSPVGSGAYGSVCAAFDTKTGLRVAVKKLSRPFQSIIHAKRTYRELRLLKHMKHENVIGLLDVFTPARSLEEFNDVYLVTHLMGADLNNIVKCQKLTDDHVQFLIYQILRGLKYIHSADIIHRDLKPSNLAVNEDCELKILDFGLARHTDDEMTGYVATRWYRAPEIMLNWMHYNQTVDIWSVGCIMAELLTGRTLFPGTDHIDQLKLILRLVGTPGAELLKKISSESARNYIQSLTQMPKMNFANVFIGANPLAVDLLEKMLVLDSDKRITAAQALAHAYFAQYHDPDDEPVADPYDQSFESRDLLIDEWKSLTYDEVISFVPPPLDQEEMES

[1] = system: β-catenin in d-U937 cells; assay: Accumulation of β catenin in d-U937 cells (assay m); type: cell-based, human
How it was run: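 U937 cells were differentiated with PMA (100 ng/mL) for 48–72 hr, then treated with compound or vehicle for 18 hr. After formaldehyde fixation, β-catenin was detected with a primary antibody and an HRP secondary using TMB (OD450–655). Signal was normalised to crystal violet cell staining (OD595).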

[2] = system: TNBS-induced colitis in BDF1 mice; assay: TNBS-induced colitis in mice (in vivo iv); set-up: species or system mouse; details: for inflammatory cell infiltrate in the reticular and laminar propria zones / ulcer grade and epithelial repair compared to the vehicle control: 5 mg/kg orally, 2 days; for inflammatory cell infiltrate in the reticular and laminar propria zones / ulcer grade and epithelial repair compared to the vehicle control / activity in in vivo model of colonic inflammation (histopathology analysis): TNBS-induced colitis, mice; for LP inflammation / Ulcer grade: TNBS-induced colitis in mice; for activity in in vivo model of colonic inflammation (histopathology analysis): conducted over 2 days
Experimental: Non-fasted, 10-12 week old, male BDF1 mice are dosed by oral gavage twice daily with either vehicle (5 mL/kg), reference item (Budesonide 2.5 mg/kg) or test compound (1 or 5 mg/kg) one day before (Day −1) stimulation of the inflammatory response by treatment with 2,4,6-trinitrobenzenesulphonic acid (TNBS) (15 mg/mL in 50% ethanol/50% saline). On Day 0 of the study TNBS (200 μL) is administered intra-colonically via a plastic catheter with BID dosing of the vehicle, reference or test compound continuing for 2 or 4 days. During the study, animals are weighed every day and stool observations are made and recorded as a score, based on stool consistency. At the time of sacrifice on Day 2 (or Day 4), the large intestine is removed and the length and weight recorded. Sections of the colon are taken for histopathology scoring to determine disease severity.

[3] = system: Salmonella typhimurium strain TA98; assay: Mutagenicity assessment (bacterial reverse mutation screen); type: cell-based; details: strain TA98, presence or absence of S-9 mix, up to 1000 μg/plate analysable
Experimental: (§1) Studies were conducted by Sequani (Ledbury, Herefordshire, UK) to assess compounds of the invention for their ability to induce mutations in two histidine dependent auxotrophic mutants of Salmonella typhimurium, strains TA98 and TA100 in vitro.
(§2) The mutation screen was conducted using the plate incorporation method and was performed in both the presence and absence of S-9 mix (a liver post-mitochondrial fraction derived from the livers of Aroclor 1254 treated rats). The bacteria were exposed to test compounds dissolved in dimethylsulphoxide, which solvent was also used as the negative control. The dose levels used were 0.32, 1.6, 8, 40, 200, 1000 or 5000 μg/plate.
(§3) Precipitation was also noted in both strains at 1000 μg/plate in the presence and absence of S-9 mix.

[4] = system: Salmonella typhimurium strain TA100; assay: as above; type: cell-based; details: strain TA100, presence or absence of S-9 mix, up to 1000 μg/plate analysable
Experimental: as §1, §2, §3

[5] = Hydrolytic stability study; type: physicochemical; details: DMSO:water (3:1), 1 mg/mL
Experimental: Chemical stability of compounds of the invention was assessed in a mixture of DMSO and water (3:1) at a test compound concentration of 1 mg/mL
Sample Preparation • A 1.0 mg sample of test compound was dissolved in 750 μL of DMSO. Water (250 μL) was added slowly, ensuring no precipitation occurred.
Recording Stability • A 50 μL aliquot of the test solution was removed and analysed in duplicate by 5 μL HPLC injections. The peak area for the test compound was recorded following manual integration of the corresponding UV trace. • The test solution was heated to 60° C., with stirring, and 50 μL aliquots removed for HPLC analysis at 5 and 24 h timepoints.

Compound	KinomeScan Selectivity Score S(10) (non-mutant kinases; 50 nM)	KinomeScan Selectivity Score S(35) (non-mutant kinases; 50 nM)	number of individual kinase hits, S(1) (non-mutant kinases; 50 nM)	number of individual kinase hits, S(10) (non-mutant kinases; 50 nM)	number of individual kinase hits, S(35) (non-mutant kinases; 50 nM)	KinomeScan Selectivity Score S(1) (non-mutant kinases; 500 nM)	KinomeScan Selectivity Score S(10) (non-mutant kinases; 500 nM)	KinomeScan Selectivity Score S(35) (non-mutant kinases; 500 nM)	IC50 (p38 MAPKα (MAPK14))	% β-catenin induction ([1]; test compound 1 μg/mL)	% β-catenin induction ([1]; test compound 5 μg/mL)	% β-catenin induction ([1]; test compound 10 μg/mL)	inflammatory cell infiltrate in the reticular and laminar propria zones [2]	ulcer grade and epithelial repair compared to the vehicle control [2]	activity in in vivo model of colonic inflammation (histopathology analysis) [2]	increases in revertant colonies [3]	increases in revertant colonies [4]	% Parent Remaining ([5]; 0 min)	% Parent Remaining ([5]; 60° C., 300 min)	% Parent Remaining ([5]; 60° C., 1440 min)	also measured
COCCOCCOCCNC(=O)c1cc(Nc2cc(Oc3ccc(NC(=O)Nc4cc(C(C)(C)C)cc(NS(C)(=O)=O)c4OC)c4ccccc34)ccn2)cc(OC)c1 [Example 3, 3-((4-((4-(3-(5-(tert-Butyl)-2-methoxy-3-(methylsulfonamido)phenyl)ureido)naphthalen-1-yl)oxy)pyridin-2-yl)amino)-5-methoxy-N-(2-(2-(2-methoxyethoxy)ethoxy)ethyl)benzamide]	0.023	0.091	0	9	36	0.046	0.149	0.235	87 nM	0%	4%	4%	marked reduction	marked improvements	substantial activity						number of individual kinase hits, S(1) (non-mutant kinases; 500 nM): 18; number of individual kinase hits, S(10) (non-mutant kinases; 500 nM): 59; number of individual kinase hits, S(35) (non-mutant kinases; 500 nM): 93; selectivity compared to the Reference Compound (non-mutant kinases): substantially improved selectivities; LP inflammation ([2]; 5 mg/kg oral): 3.8 ± 0.5; Ulcer grade ([2]; 5 mg/kg oral): 3.7 ± 0.4
COCCOCCOCCOc1cc(Nc2nccc(Oc3ccc(NC(=O)Nc4cc(C(C)(C)C)cc(NS(C)(=O)=O)c4OC)c4ccccc34)n2)cc(OC)c1 [Example 4, N-(5-(tert-Butyl)-2-methoxy-3-(3-(4-((2-((3-methoxy-5-(2-(2-(2-methoxyethoxy)ethoxy)-ethoxy)phenyl)amino)pyrimidin-4-yl)oxy)naphthalen-1-yl)ureido)phenyl)methanesulfonamide]									91 nM	3%	20%	20%	marked reduction	marked improvements	substantial activity	no dose-related or statistically significant increases	no dose-related or statistically significant increases	100%	103%	102%	LP inflammation ([2]; 1 mg/kg oral): 2.6 ± 0.3; Ulcer grade ([2]; 1 mg/kg oral): 3.6 ± 0.4
C#Cc1cc(Nc2nccc(Oc3ccc(NC(=O)Nc4cc(C(C)(C)C)cc(NS(C)(=O)=O)c4OC)c4ccccc34)n2)cc(C(=O)NCCOCCOCCOC)c1 [Example 16]	0.023	0.068	0	9	27	0.038	0.129	0.197					marked reduction	marked improvements	substantial activity	no dose-related or statistically significant increases	no dose-related or statistically significant increases	100%	100%	100%	number of individual kinase hits, S(1) (non-mutant kinases; 500 nM): 15; number of individual kinase hits, S(10) (non-mutant kinases; 500 nM): 51; number of individual kinase hits, S(35) (non-mutant kinases; 500 nM): 78; selectivity compared to the Reference Compound (non-mutant kinases): substantially improved selectivities
COc1cc(Nc2cc(Oc3ccc(NC(=O)Nc4cc(C(C)(C)C)cc(NS(C)(=O)=O)c4OC)c4ccccc34)ccn2)cc(C(=O)NCCN2CCOCC2)c1 [Example 27]									41 nM	−12%	−7%	−1%	marked reduction	marked improvements	substantial activity	no dose-related or statistically significant increases	no dose-related or statistically significant increases	100%	102%	102%	LP inflammation ([2]; 5 mg/kg oral): 3.2 ± 0.4; Ulcer grade ([2]; 5 mg/kg oral): 3.3 ± 0.5
COc1c(NC(=O)Nc2ccc(Oc3ccnc(Nc4ccccc4)c3)c3ccccc23)cc(C(C)(C)C)cc1C(=O)NC1COC1 [Example 75, 5-(tert-Butyl)-2-methoxy-N-(oxetan-3-yl)-3-(3-(4-((2-(phenylamino)pyridin-4-yl)oxy)-naphthalen-1-yl)ureido)benzamide]	0.035	0.099	2	14	39	0.038	0.139	0.230	123 nM	3%	25%	30%	marked reduction	marked improvements	substantial activity	no dose-related or statistically significant increases	no dose-related or statistically significant increases	100%	101%	99%	KinomeScan Selectivity Score S(1) (non-mutant kinases; 50 nM): 0.005; number of individual kinase hits, S(1) (non-mutant kinases; 500 nM): 15; number of individual kinase hits, S(10) (non-mutant kinases; 500 nM): 55; number of individual kinase hits, S(35) (non-mutant kinases; 500 nM): 91; selectivity compared to the Reference Compound (non-mutant kinases): substantially improved selectivities; LP inflammation ([2]; 5 mg/kg oral): 2.3 ± 0.4; Ulcer grade ([2]; 5 mg/kg oral): 3.0 ± 0.4
